Assay results taken from patent US20050076398A1, “Animal model of chronic stress diseases and method for producing the same” (Ajinomoto Co., Inc., priority 2002, published 2005).

System: lysine deficient rats
Experiment: Effect of a medicine on abnormal bowel movement of lysine deficient rats (carmine dye feces count)
Type: in vivo, rats (male Wistar)
Details: oral administration with carmine dye; rats fed low lysine diet 7 days, fasted one day; Dunnett's method
Excerpt: The low lysine diet (n=10) or lysine-containing diet (normal diet; n=10) was given to rats (Charles River Japan, Inc, male Wistar rats, 5W). The rats fed for 7 days were used. Each rat was fasted one day before the start of the experiments (on the 6th day after beginning the feeding of the experimental diet) and then a medicine and carmine dye were orally administered. The number of the carmine colorant-containing feces was cumulatively counted sequentially. The statistical analysis was conducted according to Dunnett's method.

Cc1[nH]cnc1CN1CCc2c(c3ccccc3n2C)C1=O [Alosetron]
acceleration of the excretion of carmine-containing feces: significantly control the acceleration of the excretion of the feces
